Measurements reported in ChEMBL document CHEMBL1146884, “Effect of lysine at C-terminus of the Dmt-Tic opioid pharmacophore” (J Med Chem, 2006).
Where a SMILES comes first, the peptide text is derived from it. [ ]: non-standard residue; d: D form. The star is where a group is joined. Dmt = Cc1cc(O)cc(C)c1C[C@H](N)C(=O)O; Tic = O=C(O)[C@@H]1Cc2ccccc2CN1; Cbz = O=C(OCc1ccccc1)*; NHBn = c1ccc(CN*)cc1; NHPh = c1ccc(N*)cc1

Assays:
[1] = target: Delta-type opioid receptor (Rattus norvegicus, UniProt P33533); test: Displacement of [3H]deltorphin2 from delta opioid receptor in Sprague-Dawley rat brain P2 synaptosomal membrane
Chain of Delta-type opioid receptor (Rattus norvegicus, UniProt P33533) (P33533 whole entry): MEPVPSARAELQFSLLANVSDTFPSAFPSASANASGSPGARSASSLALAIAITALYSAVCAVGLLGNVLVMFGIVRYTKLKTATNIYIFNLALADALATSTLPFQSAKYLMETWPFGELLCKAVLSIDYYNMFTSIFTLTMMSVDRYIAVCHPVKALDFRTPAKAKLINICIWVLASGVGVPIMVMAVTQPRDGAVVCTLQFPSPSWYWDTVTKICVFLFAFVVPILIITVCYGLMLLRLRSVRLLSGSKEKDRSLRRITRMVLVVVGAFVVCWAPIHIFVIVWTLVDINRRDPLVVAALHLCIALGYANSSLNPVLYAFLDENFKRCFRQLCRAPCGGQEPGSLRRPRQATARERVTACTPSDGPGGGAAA

[2] = target: T1, Delta-type opioid receptor (Mus musculus, UniProt P32300); test: Agonist activity at delta opioid receptor assessed as inhibition of electrically-evoked contraction of mouse vas deferens; assay type: functional, tissue-based
T1 sequence (P32300 whole entry): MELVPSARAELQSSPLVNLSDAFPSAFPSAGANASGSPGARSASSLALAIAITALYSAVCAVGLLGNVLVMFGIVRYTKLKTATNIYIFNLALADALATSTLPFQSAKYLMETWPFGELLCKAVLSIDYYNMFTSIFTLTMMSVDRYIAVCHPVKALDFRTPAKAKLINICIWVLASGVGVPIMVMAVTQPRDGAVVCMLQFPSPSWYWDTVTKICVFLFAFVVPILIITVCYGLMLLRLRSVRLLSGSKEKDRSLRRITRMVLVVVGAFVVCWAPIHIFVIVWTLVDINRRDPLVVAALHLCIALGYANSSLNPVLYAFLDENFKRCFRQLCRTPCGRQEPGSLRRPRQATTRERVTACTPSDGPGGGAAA

[3] = target: Mu-type opioid receptor (Rattus norvegicus, UniProt P33535); test: Displacement of [3H]DAMGO from mu opioid receptor in Sprague-Dawley rat brain P2 synaptosomal membrane
Chain of Mu-type opioid receptor (Rattus norvegicus, UniProt P33535) (P33535 whole entry): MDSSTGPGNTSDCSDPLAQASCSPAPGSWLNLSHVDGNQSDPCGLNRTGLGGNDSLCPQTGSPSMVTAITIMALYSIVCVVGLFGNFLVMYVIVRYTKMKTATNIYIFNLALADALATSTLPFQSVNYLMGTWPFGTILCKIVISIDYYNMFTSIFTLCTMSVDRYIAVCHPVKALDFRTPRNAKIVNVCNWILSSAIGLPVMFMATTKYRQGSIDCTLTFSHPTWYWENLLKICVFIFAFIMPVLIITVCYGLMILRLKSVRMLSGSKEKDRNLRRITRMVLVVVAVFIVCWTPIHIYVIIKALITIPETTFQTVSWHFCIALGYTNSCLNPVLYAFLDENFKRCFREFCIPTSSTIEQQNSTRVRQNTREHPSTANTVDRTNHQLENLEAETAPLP

[4] = target: T2, Mu-type opioid receptor (Cavia porcellus, UniProt P97266); test: Agonist activity at mu opioid receptor assessed as inhibition of electrically-evoked contraction of guinea pig ileum; assay type: functional, tissue-based
T2 sequence (P97266 whole entry): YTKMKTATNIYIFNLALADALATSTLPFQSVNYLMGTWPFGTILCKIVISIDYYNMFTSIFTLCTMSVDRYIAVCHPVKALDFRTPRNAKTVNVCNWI

[5] = target: T1, Delta-type opioid receptor; test: Antagonist activity at delta opioid receptor assessed as inhibition of deltorphin-2-induced contraction of mouse vas deferens
[6] = target: Opioid receptors; mu & delta (Rattus norvegicus) (UniProt P33533+P33535); test: Selectivity for delta opioid receptor over mu opioid receptor in Sprague-Dawley rat brain P2 synaptosomal membrane
Chain of Opioid receptors; mu & delta (Rattus norvegicus) (P33533 whole entry, looked up): as the sequence (P33533 whole entry) above
Chain of Opioid receptors; mu & delta (Rattus norvegicus) (P33535 whole entry, looked up): as the sequence (P33535 whole entry) above

[7] = target: T2, Mu-type opioid receptor; test: Antagonist activity at mu opioid receptor assessed as inhibition of endomorphin-2-induced contraction of guinea pig ileum; assay type: functional, tissue-based; conditions: read-out: pA2 (converted)

Structure (SMILES)	Ki [1]	IC50 [2]	Ki [3]	IC50 [4]	Kb [5]	Ratio Ki [6]	Kb [7]
Cc1cc(O)cc(C)c1C[C@H](N)C(=O)N1Cc2ccccc2C[C@H]1C(=O)N[C@@H](CCCCNC(=O)OCc1ccccc1)c1nc2ccccc2[nH]1	0.64 nM	9050 nM	0.37 nM	375 nM	> 10000 nM	–	–
CC(=O)NCCCC[C@H](NC(=O)[C@@H]1Cc2ccccc2CN1C(=O)[C@@H](N)Cc1c(C)cc(O)cc1C)C(=O)Nc1ccccc1 (H-[Dmt]-[Tic]-Lys(Ac)-NHPh)	0.13 nM	> 10000 nM	0.63 nM	1250 nM	0.001 nM	5	–
Cc1cc(O)cc(C)c1C[C@H](N)C(=O)N1Cc2ccccc2C[C@H]1C(=O)N[C@@H](CCCCNC(=O)OCc1ccccc1)C(=O)NCc1ccccc1 (H-[Dmt]-[Tic]-Lys(Cbz)-NHBn)	0.31 nM	> 10000 nM	4.41 nM	> 10000 nM	617 nM	14	1510 nM
Cc1cc(O)cc(C)c1C[C@H](N)C(=O)N1Cc2ccccc2C[C@H]1C(=O)NCC(=O)O (H-[Dmt]-[Tic]-Gly-OH)	1.38 nM	–	529 nM	–	1.41 nM	383	–
Cc1cc(O)cc(C)c1C[C@H](N)C(=O)N1Cc2ccccc2C[C@H]1C(=O)N[C@@H](CCCCN)C(=O)NCc1ccccc1 (H-[Dmt]-[Tic]-Lys-NHBn)	0.5 nM	> 10000 nM	4.05 nM	> 10000 nM	977 nM	8	11 nM
Cc1cc(O)cc(C)c1C[C@H](N)C(=O)N1Cc2ccccc2C[C@H]1C(=O)N[C@H](CCCCNC(=O)OCc1ccccc1)c1nc2ccccc2[nH]1	0.4 nM	> 10000 nM	0.15 nM	62.5 nM	> 10000 nM	–	–
CC(=O)NCCCC[C@H](NC(=O)[C@@H]1Cc2ccccc2CN1C(=O)[C@@H](N)Cc1c(C)cc(O)cc1C)C(=O)NCc1ccccc1 (H-[Dmt]-[Tic]-Lys(Ac)-NHBn)	0.068 nM	> 10000 nM	5.5 nM	> 10000 nM	0.0398 nM	81	6.92 nM
Cc1cc(O)cc(C)c1C[C@H](N)C(=O)N1Cc2ccccc2C[C@H]1C(=O)N[C@@H](CCCCN)c1nc2ccccc2[nH]1	0.49 nM	> 10000 nM	0.16 nM	39.7 nM	–	–	–
Cc1cc(O)cc(C)c1C[C@H](N)C(=O)N1Cc2ccccc2C[C@H]1C(=O)N[C@@H](CCCCNC(=O)OCc1ccccc1)C(=O)Nc1ccccc1 (H-[Dmt]-[Tic]-Lys(Cbz)-NHPh)	0.57 nM	> 10000 nM	1.47 nM	438 nM	1700 nM	3	–
CC(=O)NCCCC[C@H](NC(=O)[C@@H]1Cc2ccccc2CN1C(=O)[C@@H](N)Cc1c(C)cc(O)cc1C)c1nc2ccccc2[nH]1	0.18 nM	> 10000 nM	0.13 nM	53.9 nM	–	–	–
Cc1cc(O)cc(C)c1C[C@H](N)C(=O)N1Cc2ccccc2C[C@H]1C(=O)N[C@@H](CCCCN)C(=O)Nc1ccccc1 (H-[Dmt]-[Tic]-Lys-NHPh)	0.42 nM	> 10000 nM	0.93 nM	1250 nM	4170 nM	2	–
